Source: paper PMC5748279, “Novel Antitubercular 6-Dialkylaminopyrimidine Carboxamides from Phenotypic Whole-Cell High Throughput Screening of a SoftFocus Library: Structure–Activity Relationship and Target Identification Studies” (Journal of Medicinal Chemistry, 2017)
Entries after “also recorded” stand apart in the source; their conditions may differ.

What was measured:
[1] = test system: cytochrome bd oxidase knockout mutant strain (cydKO); type: cell-based; settings: 7H9 GLU ADC medium
[2] = test system: PrecA-LUX reporter (genotoxic compounds); type: cell-based; settings: luminescence over 7 days, CIPRO control
[3] = test system: PiniB-LUX reporter (Mtb cell wall biosynthesis); type: cell-based; settings: luminescence over 7 days, INH control
[4] = test system: Mycobacterium tuberculosis (H37RvMa); test: microbe, parasite or virus in culture; type: cell-based; settings: for MIC99 7H9/ADC: 7H9/ADC medium; for MIC99 GAST/Fe: GAST/Fe medium
Vero cell lines = type: cell-based, African green monkey; settings: read-out: Cytotoxicity (IC50 on Vero cell lines)
Procedure: chemosensitivity. […]. Thus only viable cells
formazan. Formazan crystals are dissolved in DMSO. The test samples were tested in triplicate on
experiment. […] Emetine was used
as the reference drug in all experiments. The initial concentration of emetine was 100 µg/mL,
lowest being 0.001 µg/mL. […] The
(§1) the cell viability (data not shown).
GraphPad Prism v.4 software.
(§2) expressing the full length hERG channel. Single cell ionic currents were measured in the […]

physchem = type: physicochemical
Procedure: (§3) The kinetic solubility assay was performed using a miniaturised shake flask method. 10 mM stock […]
(§4) DMSO, and to spike (1:50) duplicate aqueous samples of FaSSIF (simulating fasting state biorelevant media, pH 6.5), with a final DMSO concentration of 2%. After shaking for 2 hours at 25 °C, the solutions were filtered and analysed by means of HPLC,DAD (Agilent 1200 Rapid Resolution HPLC with a diode array detector). Best fit calibration curves were constructed using the calibration standards, which were used to determine the aqueous samples’ solubility.13
(§5) 4.2) Microsomal stability
The metabolic stability assay was performed in duplicate in a 96,well micro titre plate. The test compounds (0.1 µM) were incubated individually in mouse, rat and pooled human liver […]
the cofactor NADPH (1 mM). Reactions were quenched by adding 300 µL of ice cold acetonitrile containing internal standard (carbamazepine, 0.0236 µg/mL). Test compounds in the supernatant were analysed by means of LC,MS/MS (Agilent Rapid Resolution HPLC, AB SCIEX 4000 QTRAP MS) for the disappearance of parent compound. Metabolite searches were not conducted during the metabolic stability assay.14
4.3) Plasma protein binding (PPB) assay
The plasma protein binding assay was performed in a 96,well micro titre plate with pooled human plasma, spiked with test compound (5 µM). An aliquot was immediately removed and quenched using ice cold acetonitrile containing internal standard (carbamazepine, 0.0236 µg/mL), and placed in the freezer. This served as the total concentration sample. After pre,incubation (37 °C for 1 hour) duplicate aliquots of the spiked plasma were transferred to ultra,centrifugation tubes, […]

[5] = Caseum binding using surrogate caseum
in vivo = settings: male, C57/BL6, mouse
in vitro = in vitro ADME; settings: human, plasma; PPB assay; read-out: free fraction in human plasma
Procedure: as §3, §4, §5
The metabolic stability assay was performed in duplicate in a 96,well micro titre plate. […]
the cofactor NADPH (1 mM). […] Test compounds in the supernatant were analysed by means of LC,MS/MS (Agilent Rapid Resolution HPLC, AB SCIEX 4000 QTRAP MS) for the disappearance of parent compound. […]
and ultracentrifuged for 4 hours (42000 rpm, 37 °C, Beckman Optima L,80XP). Analyte concentration of all compounds and sample types were determined by means of LC,MS/MS (Agilent Rapid Resolution HPLC, AB SCIEX 4000 QTRAP MS). […]
The lipophilicity assay was performed in triplicate using a shake,flask procedure. […] The samples were analysed by HPLC,DAD (Agilent 1200 Rapid Resolution HPLC with a diode array detector) and the amount of compound in the buffer and n, octanol were used to determine the partition coefficient, LogD7.4.15 […]

[6] = type: in vitro ADME
Procedure: and ultracentrifuged for 4 hours (42000 rpm, 37 °C, Beckman Optima L,80XP). Analyte concentration of all compounds and sample types were determined by means of LC,MS/MS (Agilent Rapid Resolution HPLC, AB SCIEX 4000 QTRAP MS).
4.4) Lipophilicity (LogD7.4)
The lipophilicity assay was performed in triplicate using a shake,flask procedure. 10 mM stock solutions of each test compound were used to spike (100 µM) a 1:1 mixture of phosphate buffer (pH 7.4) and n,octanol. The solutions were shaken vigorously (1500 rpm) on an orbital shaker for 3 hours at room temperature. Thereafter the samples were centrifuged in order to fully separate the two immiscible fluids. The samples were analysed by HPLC,DAD (Agilent 1200 Rapid Resolution HPLC with a diode array detector) and the amount of compound in the buffer and n, octanol were used to determine the partition coefficient, LogD7.4.15
4.5) Parallel Artificial Membrane Permeability Assay (PAMPA):
The PAMPA assay was performed in triplicate in 96,well MultiScreen Filter plates (Millipore, 0.4 µM PCTE Membrane). Membrane filters were pre,coated with 5% hexadecane in hexane and allowed to dry prior to the assay. Membrane integrity marker, Lucifer yellow was added to the apical wells of the pre,coated MultiScreen plate donor/drug solutions containing test compound.
Phosphate buffer (pH7.4) was added to the 96,well acceptor plate. 10 mM test compound was used to spike (1 µM) the donor buffer at physiologically relevant pH's (pH 4, 6.5 and 8), the donor plate slotted into the acceptor plate and incubated (4 hours at room temperature) with gentle shaking (40,50 rpm). Following the incubation, sample from the acceptor wells and theoretical equilibrium wells were transferred to the analysis plate and matrix matched with blank donor buffer. Acetonitrile containing internal standard (carbamazepine, 0.0236 µg/mL) was added to all samples and they were analysed by LC,MS/MS (Agilent Rapid Resolution HPLC, AB SCIEX 4500 MS). The normalised (analyte/internal) peak areas were used to calculate the apparent permeability (Papp). Membrane integrity was assessed by calculating the Papp of Lucifer Yellow […]
chemosensitivity. […]. Thus only viable cells […]
formazan. Formazan crystals are dissolved in DMSO. The test samples were tested in triplicate on […]
experiment. […] Emetine was used […]
as the reference drug in all experiments. The initial concentration of emetine was 100 µg/mL, […]
lowest being 0.001 µg/mL. […] The […]
as §1
GraphPad Prism v.4 software. […]
as §2

mice = test: Toxicity observed in mice on oral dosing; type: in vivo; settings: higher doses

Compound: COc1ccc(NC(=O)c2cc(N(C)Cc3ccccc3)ncn2)cc1 [Compound 1, 6-(Benzyl(methyl)amino)-N-(4-methoxyphenyl)pyrimidine-4-carboxamide]
- Δcyd 7H9 GLU ADC MIC99 [1]: > 20 µM
- PrecA-LUX reporter response [2]: delayed (Day 3 onwards) induction of luminescence
- PiniB-LUX reporter response [3]: did not elicit a positive response; also recorded: no response

Compound: N-(4-(4-Acetylpiperazin-1-yl)phenyl)-6-(methyl((6-(trifluoromethyl)pyridin-3-yl)methyl)amino)pyrimidine-4-carboxamide [Compound 44]
- MIC99 7H9/ADC [4]: 4.7 µM
- MIC99 7H9/ADC ([4]; supplementary csv): 4.7 æM
- MIC99 GAST/Fe [4]: 2.3 µM
- MIC99 GAST/Fe ([4]; supplementary csv): 2.3 æM
- MIC ([4]; medium not stated): < 5 µM
- IC50 (Vero cell lines): > 50 µM
- solubility kinetic at 2 h (physchem; pH 7.4): <5 µM
- Solubility (physchem; supplementary csv): <5 æM

Compound: CN(Cc1ccc(C(F)(F)F)nc1)c1cc(C(=O)Nc2nncs2)ncn1 [Compound 52, 6-(Methyl((6-(trifluoromethyl)pyridin-3-yl)methyl)amino)-N-(1,3,4-thiadiazol-2-yl)pyrimidine-4-carboxamide]
- caseum distribution unbound [5]: 3.6%
- AUC(0-inf) at 24 h (in vivo; iv, 5 mg/kg): 35.1 µM·h
- clearance at 24 h (in vivo; iv, 5 mg/kg): 6.6 mL/min/kg
- AUC(0-inf) at 24 h (in vivo; po, 20 mg/kg): 93.6 µM·h
- half-life (in vivo; po, 20 mg/kg): 3 h
- fraction unbound at 4 h, 5 µM (in vitro): ≤ 0.3
- PAMPA log Papp [6]: –3.9
- solubility at 2 h (physchem; pH 6.5, fasted-state simulated intestinal fluid, read-out: FassiF solubility at pH 6.5): > 100 µM
- solubility kinetic at 2 h (physchem; pH 7.4, pH 7.4): > 100 µM
- toxicity to mice (mice): toxic to mice when dosed orally above 50 mg/kg
